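Step 1: Grow cells in 96-well plates. Step 2: Expose to compound for 48 hours at 5 concentrations. Step 3: Interpolate endpoints linearly; if unreached, use highest concentration. Abbreviation: GI50, concentration required for 50% inhibition of growth. The concentration for full growth arrest is given as TGI.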

Among the test systems are DU-145 prostate; SK-OV-3 ovarian; NCI-H23 lung; CAKI-1 renal; UACC-257 melanoma; SN12C renal; SF-539 CNS; SR leukemia.
Common to all, as to assay: growth of human tumour cells (NCI), 48 h

Consider `Cc1ccc(Cl)cc1Nc1nc(C(F)(F)F)ccc1C(=O)Oc1ccc(Cl)cc1`, for which the GI50 was 7.73 µM in the assay with DU-145 prostate; 12.2 µM in the assay on SK-OV-3 ovarian; 11.7 µM in the assay with NCI-H23 lung; 3.31 µM with CAKI-1 renal; 39.3 µM in the assay with UACC-257 melanoma; 14.5 µM in the assay with SN12C renal. Moreover, the GI50 in the assay with SF-539 CNS was 12 µM. Further, the TGI with DU-145 prostate was 24.8 µM; with SK-OV-3 ovarian, 37.4 µM; with NCI-H23 lung, 27.8 µM; in the assay with CAKI-1 renal it was 13.2 µM; in the assay on UACC-257 melanoma it was more than 100 µM; with SN12C renal, 43.8 µM. Besides, in the assay on SF-539 CNS, the TGI stood at 27.1 µM.

On to `COc1ccc(Cc2ccccc2C(=O)O)c2ccccc12`, for which the TGI was more than 100 µM with DU-145 prostate; more than 100 µM in the assay with SK-OV-3 ovarian; more than 100 µM in the assay on SR leukemia; 67.3 µM in the assay on NCI-H23 lung; more than 100 µM in the assay on CAKI-1 renal; 48.3 µM in the assay with UACC-257 melanoma. The TGI with SN12C renal was more than 100 µM.

Consider `CCCNc1nc(-c2ccc(OC)cc2)nc2ccccc12`, for which the GI50 was 14.3 µM with DU-145 prostate; 18.9 µM in the assay with SK-OV-3 ovarian; 13.8 µM in the assay on SR leukemia; 18 µM in the assay with NCI-H23 lung; 13.3 µM with CAKI-1 renal; 20.2 µM with SN12C renal. Besides, the TGI is 32.2 µM in the assay with DU-145 prostate; 53 µM in the assay on SK-OV-3 ovarian; more than 100 µM in the assay with SR leukemia; 45.9 µM in the assay with NCI-H23 lung; 27.9 µM with CAKI-1 renal; 46.1 µM with SN12C renal.

In the case of `O=C(NC(=S)NS(=O)(=O)c1ccc(N2N=C3c4ccccc4CC3C2c2cccs2)cc1)c1ccccc1` (stereo unspecified), the GI50 with DU-145 prostate was 28.3 µM; with SK-OV-3 ovarian, 90.8 µM; in the assay with CAKI-1 renal, 26.1 µM; with UACC-257 melanoma, 42.8 µM; in the assay with SN12C renal, 26 µM; with SF-539 CNS it was 27.9 µM. In addition, the TGI in the assay with DU-145 prostate is more than 100 µM; with SK-OV-3 ovarian, more than 100 µM; with CAKI-1 renal, 77.4 µM; in the assay with UACC-257 melanoma it was more than 100 µM; in the assay with SN12C renal it was 96.9 µM; in the assay on SF-539 CNS it was 84.6 µM.

Take `O=C(/C=N/O)c1c(-c2ccccc2)[nH]c(-c2ccccc2)c1-c1ccccc1`: the TGI in the assay with DU-145 prostate is 12.3 µM; with SK-OV-3 ovarian, 35.1 µM; in the assay on NCI-H23 lung it was 21.3 µM; with CAKI-1 renal it was 48.1 µM; in the assay with UACC-257 melanoma it was 35 µM; with SN12C renal, 35.2 µM. The TGI with SF-539 CNS stood at 26.9 µM.

For the molecule `N#Cc1c2ccccc2c2nnc3cc(Cl)c(Cl)cc3n12`, the GI50 is 32.4 µM with DU-145 prostate; more than 100 µM in the assay on SK-OV-3 ovarian; 75.1 µM in the assay on NCI-H23 lung; 77.4 µM in the assay with CAKI-1 renal; 34.5 µM with UACC-257 melanoma; 23 µM in the assay with SN12C renal. Further, the GI50 in the assay on SF-539 CNS was 28.5 µM. Besides, the TGI is more than 100 µM with DU-145 prostate; more than 100 µM in the assay with SK-OV-3 ovarian; more than 100 µM in the assay with NCI-H23 lung; more than 100 µM in the assay with CAKI-1 renal; more than 100 µM with UACC-257 melanoma; 61.6 µM with SN12C renal. Further, the TGI with SF-539 CNS was found to be 61.8 µM.

Turning to `CC1=C(C(=O)Nc2ccc(F)c(Cl)c2)C(c2cccc(Cl)c2)NC(=O)N1` (stereo unspecified), the GI50 is 20.6 µM in the assay with DU-145 prostate; 19.1 µM in the assay on SK-OV-3 ovarian; 16.8 µM in the assay with NCI-H23 lung; 27.3 µM with CAKI-1 renal; 21.4 µM in the assay on UACC-257 melanoma; 16 µM in the assay on SN12C renal. For the same molecule, the GI50 in the assay with SF-539 CNS is 19.6 µM. For the same molecule, the TGI in the assay with DU-145 prostate is 55.8 µM; in the assay with SK-OV-3 ovarian, 44.6 µM; in the assay with NCI-H23 lung, 31.9 µM; with CAKI-1 renal, more than 100 µM; in the assay on UACC-257 melanoma, 56.2 µM; in the assay on SN12C renal, 32.1 µM. In the assay with SF-539 CNS, this molecule displayed a TGI of 37.2 µM.

Regarding `CNCCNc1nc2ccccc2c2c(=O)c3cccc(OC)c3sc12`, the GI50 is 1.49 µM with DU-145 prostate; 1.65 µM in the assay with SK-OV-3 ovarian; 1.48 µM in the assay with NCI-H23 lung; 1.32 µM in the assay with CAKI-1 renal; 1.78 µM with UACC-257 melanoma; 1.08 µM with SN12C renal. For the same molecule, the GI50 in the assay on SF-539 CNS is 1.69 µM. Besides, the TGI in the assay with DU-145 prostate came out at 2.95 µM; in the assay with SK-OV-3 ovarian, 3.84 µM; in the assay on NCI-H23 lung it was 3 µM; in the assay with CAKI-1 renal, 2.71 µM; with UACC-257 melanoma, 3.67 µM; in the assay with SN12C renal it was 2.53 µM. Further, in the assay with SF-539 CNS, the TGI was determined as 3.12 µM.

Turning to `O=C1c2cc3c(cc2-c2c1c1ccc([N+](=O)[O-])cc1c(=O)n2CCCCl)OCO3`, the GI50 is 0.122 µM with DU-145 prostate; 0.0158 µM with SR leukemia; 0.285 µM in the assay with NCI-H23 lung; 0.0268 µM in the assay with CAKI-1 renal; 0.0862 µM with SN12C renal; 0.145 µM in the assay with SF-539 CNS. For the same molecule, the TGI with DU-145 prostate was more than 100 µM; in the assay on SK-OV-3 ovarian, more than 100 µM; in the assay on SR leukemia it was 27.8 µM; in the assay on CAKI-1 renal it was 76.6 µM; with SN12C renal, 0.503 µM.

As for `CN(C)/[N+]([O-])=N/Oc1cc(Nc2ccc(C(=O)O)cc2)c([N+](=O)[O-])cc1[N+](=O)[O-]`, the GI50 is 18 µM with DU-145 prostate; 51.3 µM with SR leukemia; 20.3 µM in the assay on NCI-H23 lung; 22.1 µM in the assay with CAKI-1 renal; 19.4 µM in the assay with UACC-257 melanoma; 18.6 µM in the assay on SN12C renal. For the same molecule, the GI50 in the assay on SF-539 CNS is 23.5 µM. Besides, the TGI with DU-145 prostate is 35.7 µM; with SR leukemia it was more than 100 µM; in the assay with NCI-H23 lung, 40.9 µM; in the assay on CAKI-1 renal it was 51.7 µM; in the assay on UACC-257 melanoma, 35.5 µM; in the assay with SN12C renal, 33.6 µM. The TGI with SF-539 CNS came out at 53.6 µM.

Regarding `O=c1c2ccccc2nc(-c2ccc(Cl)cc2)n1O`, the TGI is more than 100 µM in the assay with DU-145 prostate; more than 100 µM in the assay with SK-OV-3 ovarian; more than 100 µM in the assay on NCI-H23 lung; more than 100 µM with CAKI-1 renal; 88.2 µM in the assay with UACC-257 melanoma; more than 100 µM with SN12C renal. This molecule registered a TGI in the assay with SF-539 CNS of 64.7 µM.

Source of the values: PubChem BioAssay (NCI).
